“Also recorded” adds a separate entry of the source.
Experiments:
TLR4 [1] = molecular target: T1, TLR4 (Mus musculus, UniProt Q9JHF9+Q9QUK6); parameters: species or system C57BL/6 mice; conditions: in vivo
T1 construct: Corneas of C57BL/6 mice were abraded with three parallel, superficial scratches; from tissue; host or cells: cornea of living C57BL/6 mice
T1 sequence (Q9QUK6 26-835): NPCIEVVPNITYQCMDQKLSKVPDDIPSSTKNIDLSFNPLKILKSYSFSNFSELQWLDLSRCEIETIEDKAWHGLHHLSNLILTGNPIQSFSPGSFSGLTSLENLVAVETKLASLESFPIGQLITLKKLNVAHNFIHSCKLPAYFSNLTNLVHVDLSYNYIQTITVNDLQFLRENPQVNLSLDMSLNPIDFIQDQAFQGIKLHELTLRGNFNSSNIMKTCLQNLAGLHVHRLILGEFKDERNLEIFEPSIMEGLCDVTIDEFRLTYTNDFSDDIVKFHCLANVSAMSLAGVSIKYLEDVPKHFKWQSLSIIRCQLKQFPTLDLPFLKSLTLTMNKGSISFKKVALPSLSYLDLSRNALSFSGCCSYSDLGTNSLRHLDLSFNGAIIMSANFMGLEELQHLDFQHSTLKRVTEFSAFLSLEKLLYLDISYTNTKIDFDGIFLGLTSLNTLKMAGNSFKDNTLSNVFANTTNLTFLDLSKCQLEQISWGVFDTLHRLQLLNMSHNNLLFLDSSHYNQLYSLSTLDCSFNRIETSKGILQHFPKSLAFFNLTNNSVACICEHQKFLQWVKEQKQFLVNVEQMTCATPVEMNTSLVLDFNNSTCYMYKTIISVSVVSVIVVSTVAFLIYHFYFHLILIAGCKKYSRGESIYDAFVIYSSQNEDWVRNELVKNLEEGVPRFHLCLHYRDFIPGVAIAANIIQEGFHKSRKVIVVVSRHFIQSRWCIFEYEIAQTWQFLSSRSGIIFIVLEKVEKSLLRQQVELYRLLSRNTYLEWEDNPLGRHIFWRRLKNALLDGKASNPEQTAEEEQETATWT
T1 sequence (Q9JHF9 19-160): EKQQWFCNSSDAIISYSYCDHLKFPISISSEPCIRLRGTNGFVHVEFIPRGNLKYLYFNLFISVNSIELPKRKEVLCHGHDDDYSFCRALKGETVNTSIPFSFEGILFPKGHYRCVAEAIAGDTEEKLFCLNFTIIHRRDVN

TLR2 [2] = molecular target: T2, TLR2 (Mus musculus, UniProt Q9QUN7); assay: Pam3Cys-induced CXCL1/KC production in the cornea, mouse contact lens model; type: in vivo, C57BL/6 mice; conditions: topical pre-treatment 1 h before Pam3Cys; ELISA 4 h after stimulation; vs placebo
T2 construct: Corneas of C57BL/6 mice were abraded with three parallel, superficial scratches; from tissue; host or cells: cornea of living C57BL/6 mice
Method: (§5) C57BL/6 mice (6-8 weeks old) were obtained from The Jackson Laboratory (Bar Harbor, Me.). Mice were anesthetized by intraperitoneal injection of 0.4 ml 2,2,2-tribromoethanol (TBE). A 26 gauge needle was used to make three parallel abrasions in the corneal epithelium as described in our previous studies. Eritoran tetrasodium or placebo at concentrations indicated for each experiment was added topically, and a 2 mm diameter punch from a normal contact lens (LOTRAFILCON A; CIBA VISION) was added to the corneal surface (See FIG. 1). After an additional 1 h, the lens was briefly removed, and 2 μl LPS (20 mg/ml) or Pam3Cys (5 mg/ml) was placed on the corneal surface. The contact lens button was then replaced, and after an additional 1 h, the lens was removed and the mice were allowed to recover from anesthesia. In some experiments, the order of agonist and antagonist was reversed, or both were given simultaneously.
Briefly, Corneas of C57BL/6 mice were abraded with three parallel, superficial scratches. 2 μl of 350 mg/ml Eritoran or placebo was added topically, and a 2 mm diameter punch from a soft contact lens was placed on the corneal surface as shown in FIG. 1. […] After 1 h, the lens was removed, and 3 h later (4 h after stimulation), and corneas were dissected, homogenized, and CXCL1/KC was measured by ELISA. […]

TLR4 [3] = molecular target: T3, TLR4 (Homo sapiens, UniProt O00206+Q9Y6Y9); assay: LPS-induced IL-8 production by neutrophils (HL-60); type: cell-based; parameters: endogenous in cells; host or cells: HL-60 (five days in 1.2% DMSO); conditions: for LPS-induced IL-8 production: HL-60 neutrophils, 1 ng/ml LPS, 3 h
Method: (§1) The U937 macrophage-cell line was cultured in RPMI medium (GIBCO) with 10% FBS, and 5×10^4 cells/well were added to 96-well plates. The human neutrophil-like cell line (HL-60) was maintained in RPMI with 10% FBS, and incubated five days in 1.2% DMSO to generate the neutrophil phenotype.
(§2) All cells were incubated with eritoran or placebo, followed by stimulation with LPS or Pam3CysK4 at optimal concentrations for each cells line (noted in results). After 3 h, cell-free supernatants were collected, and CXCL8/IL-8 was measured by ELISA (R&D Systems).
(§3) Cell lines derived from human corneal epithelial cells (HCE-T), macrophages (U937) and neutrophils (HL-60) were stimulated with LPS or Pam3Cys in the presence of eritoran tetrasodium or placebo. After 3 h (U937 and HL-60 cells) or 24 h (HCE-T cell), IL-8 levels in culture supernatants were quantified by ELISA. […] FIGS. 16 and 17 show macrophages stimulated with 10 ng/ml LPS or 500 ng/ml Pam3Cys in the presence of Eritoran or placebo. FIGS. 18 and 19 show neutrophils stimulated with 1 ng/ml LPS or 500 ng/ml Pam3Cys and Eritoran or placebo. LPS concentrations were based on preliminary data showing optimal IL-8 production. […] Graphs are mean+/−SEM of three wells per sample. Experiments were repeated three times with similar results.

TLR4 [4] = molecular target: T3, TLR4; assay: LPS-induced IL-8 production by human corneal epithelial cells (HCE-T); type: cell-based; parameters: endogenous in cells; host or cells: HL-60 (five days in 1.2% DMSO); conditions: for LPS-induced IL-8 production: HCE-T cells, 900 ng/ml LPS with 0.2 μg/ml MD-2, 24 h, ELISA
Method: (§4) The SV-40 transfected human corneal epithelial cell line (HCE-T) was obtained from ATCC. Before stimulation, HCE cells were plated into 48 well plates and underwent epidermal growth factor starvation overnight. As HCE cells require exogenous MD-2 to respond to LPS, cells were incubated 1 h with 200 ng/ml recombinant human MD-2 (R&D Systems, Minneapolis, Minn.) prior to stimulation with ultrapure LPS (TLR4-specific, Escherichia coli K12, Invivogen; San Diego, Calif.). HCE cells were also incubated with Pam3CysK4 (EMC Microcollections, Germany) in the absence of MD-2.
as §2, §3

TLR2 [5] = molecular target: T4, TLR2 (Homo sapiens, UniProt O60603); assay: Pam3Cys-induced IL-8 production by neutrophils (HL-60); type: cell-based; conditions: HL-60 neutrophils; 500 ng/ml Pam3Cys; 3 h
T4 construct: endogenous in cells; host or cells: HCE-T human corneal epithelial cell line (ATCC)
Method: as §1, §2, §3

TLR4/MD-2 = molecular target: T5, TLR4/MD-2 (Mus musculus, UniProt Q9JHF9+Q9QUK6); parameters: species or system C57BL/6 mice; conditions: in vivo
T5 construct: from tissue; host or cells: cornea of living C57BL/6 mice
T5 sequence (Q9QUK6 26-835): T1 sequence (Q9QUK6 26-835)
T5 sequence (Q9JHF9 19-160): T1 sequence (Q9JHF9 19-160)

TLR4 [6] = molecular target: T1, TLR4; parameters: species or system C57BL/6 mice; conditions: in vivo; remark: listed apart in the source
Method: as §5
Briefly, Corneas of C57BL/6 mice were abraded with three parallel, superficial scratches. 2 μl of 350 mg/ml Eritoran or placebo was added topically, and a 2 mm diameter punch from a soft contact lens was placed on the corneal surface as shown in FIG. 1. […] After 1 h, the lens was removed, and 3 h later (4 h after stimulation), and corneas were dissected, homogenized, and CXCL1/KC was measured by ELISA.

TLR2 [7] = molecular target: T4, TLR2; assay: Pam3Cys-induced IL-8 production by macrophages (U937); type: cell-based; conditions: 500 ng/ml Pam3Cys, 3 h
Method: as §1, §2, §3

TLR4 [8] = molecular target: T3, TLR4; assay: LPS-induced IL-8 production by macrophages (U937); type: cell-based; parameters: endogenous in cells; conditions: for LPS-induced IL-8 production: U937 macrophages, 10 ng/ml LPS, 3 h
Method: as §1, §2, §3

TLR2 [9] = molecular target: T4, TLR2; assay: Pam3Cys-induced IL-8 production by human corneal epithelial cells (HCE-T); type: cell-based; conditions: 500 ng/ml Pam3Cys, 24 h
Method: as §4, §2
Cell lines derived from human corneal epithelial cells (HCE-T), macrophages (U937) and neutrophils (HL-60) were stimulated with LPS or Pam3Cys in the presence of eritoran tetrasodium or placebo. After 3 h (U937 and HL-60 cells) or 24 h (HCE-T cell), IL-8 levels in culture supernatants were quantified by ELISA. […] FIGS. 16 and 17 show macrophages stimulated with 10 ng/ml LPS or 500 ng/ml Pam3Cys in the presence of Eritoran or placebo. FIGS. 18 and 19 show neutrophils stimulated with 1 ng/ml LPS or 500 ng/ml Pam3Cys and Eritoran or placebo. […]

TLR2 [10] = molecular target: T2, TLR2; assay: Pam3Cys-induced contact lens corneal inflammation (neutrophil infiltrate, reflectivity); type: in vivo, C57BL/6 mice
corneal epithelium = tested on: corneal epithelium
Method: The cell viability in vitro was measured by trypan blue. The corneal sections were incubated with terminal deoxynucleotidyl transferase-mediated dUTP nick end labeling (TUNEL) reagents according to manufacturer's directions (Roche, Penzberg, Germany), and the number of TUNEL positive cells in the cornea was quantified by fluorescence microscopy.
Mice were pre-treated with 2.2 μg eritoran tetrasodium prior to LPS, as described above, and eyes were snap frozen. We used a TUNEL assay on 5 μm corneal sections to identify apoptotic cells. Total cells were identified using DAPI.

Gram negative Lipid A = conditions: cited from earlier work
[11] = pretreatment with the highest concentration, Pam3Cys stimulation

T3 sequence (O00206 24-839): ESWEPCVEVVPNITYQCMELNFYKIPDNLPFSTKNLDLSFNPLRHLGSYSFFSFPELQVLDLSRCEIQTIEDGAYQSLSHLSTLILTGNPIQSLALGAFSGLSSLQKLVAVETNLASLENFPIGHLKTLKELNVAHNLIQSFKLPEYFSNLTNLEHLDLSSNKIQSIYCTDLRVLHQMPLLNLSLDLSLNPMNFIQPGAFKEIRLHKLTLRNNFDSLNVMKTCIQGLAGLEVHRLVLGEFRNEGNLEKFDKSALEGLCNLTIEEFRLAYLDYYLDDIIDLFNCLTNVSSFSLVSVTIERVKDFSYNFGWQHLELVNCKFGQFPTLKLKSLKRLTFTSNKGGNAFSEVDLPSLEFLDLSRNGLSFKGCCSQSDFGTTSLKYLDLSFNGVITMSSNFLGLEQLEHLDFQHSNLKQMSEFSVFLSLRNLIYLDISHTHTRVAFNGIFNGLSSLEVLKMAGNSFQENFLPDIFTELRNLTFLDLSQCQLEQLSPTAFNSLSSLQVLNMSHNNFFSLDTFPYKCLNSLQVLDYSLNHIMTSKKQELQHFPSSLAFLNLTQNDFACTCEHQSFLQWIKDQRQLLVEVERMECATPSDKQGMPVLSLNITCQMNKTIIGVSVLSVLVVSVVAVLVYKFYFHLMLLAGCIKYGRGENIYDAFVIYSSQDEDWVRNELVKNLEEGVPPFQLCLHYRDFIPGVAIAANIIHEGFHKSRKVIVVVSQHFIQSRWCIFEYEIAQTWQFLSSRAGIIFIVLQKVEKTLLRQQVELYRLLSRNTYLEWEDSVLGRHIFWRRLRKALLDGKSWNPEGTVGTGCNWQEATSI
T3 sequence (Q9Y6Y9 19-160): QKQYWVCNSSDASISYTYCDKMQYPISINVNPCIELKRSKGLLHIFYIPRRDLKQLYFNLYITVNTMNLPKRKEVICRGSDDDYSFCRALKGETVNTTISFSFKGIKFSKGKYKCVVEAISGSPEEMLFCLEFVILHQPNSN
T4 sequence (O60603 21-784): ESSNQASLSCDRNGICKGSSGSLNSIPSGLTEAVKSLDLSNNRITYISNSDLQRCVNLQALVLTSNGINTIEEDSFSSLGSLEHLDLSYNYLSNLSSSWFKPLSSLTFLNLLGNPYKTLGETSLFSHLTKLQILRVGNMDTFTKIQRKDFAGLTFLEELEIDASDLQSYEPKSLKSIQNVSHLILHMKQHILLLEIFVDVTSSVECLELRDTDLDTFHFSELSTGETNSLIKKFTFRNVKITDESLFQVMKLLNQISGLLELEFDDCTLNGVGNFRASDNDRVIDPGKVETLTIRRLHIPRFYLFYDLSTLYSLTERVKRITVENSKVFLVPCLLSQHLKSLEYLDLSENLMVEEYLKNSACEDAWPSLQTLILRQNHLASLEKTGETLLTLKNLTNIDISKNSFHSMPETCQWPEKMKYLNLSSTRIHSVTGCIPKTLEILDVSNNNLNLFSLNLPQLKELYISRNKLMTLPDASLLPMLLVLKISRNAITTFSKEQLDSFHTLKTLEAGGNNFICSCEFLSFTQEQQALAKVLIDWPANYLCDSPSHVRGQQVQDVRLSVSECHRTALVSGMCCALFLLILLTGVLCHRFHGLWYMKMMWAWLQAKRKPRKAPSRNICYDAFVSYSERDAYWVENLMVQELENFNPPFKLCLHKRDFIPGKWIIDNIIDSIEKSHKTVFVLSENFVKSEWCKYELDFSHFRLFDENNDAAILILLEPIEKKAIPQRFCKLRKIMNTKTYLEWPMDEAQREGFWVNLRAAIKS
T2 sequence (Q9QUN7 25-784): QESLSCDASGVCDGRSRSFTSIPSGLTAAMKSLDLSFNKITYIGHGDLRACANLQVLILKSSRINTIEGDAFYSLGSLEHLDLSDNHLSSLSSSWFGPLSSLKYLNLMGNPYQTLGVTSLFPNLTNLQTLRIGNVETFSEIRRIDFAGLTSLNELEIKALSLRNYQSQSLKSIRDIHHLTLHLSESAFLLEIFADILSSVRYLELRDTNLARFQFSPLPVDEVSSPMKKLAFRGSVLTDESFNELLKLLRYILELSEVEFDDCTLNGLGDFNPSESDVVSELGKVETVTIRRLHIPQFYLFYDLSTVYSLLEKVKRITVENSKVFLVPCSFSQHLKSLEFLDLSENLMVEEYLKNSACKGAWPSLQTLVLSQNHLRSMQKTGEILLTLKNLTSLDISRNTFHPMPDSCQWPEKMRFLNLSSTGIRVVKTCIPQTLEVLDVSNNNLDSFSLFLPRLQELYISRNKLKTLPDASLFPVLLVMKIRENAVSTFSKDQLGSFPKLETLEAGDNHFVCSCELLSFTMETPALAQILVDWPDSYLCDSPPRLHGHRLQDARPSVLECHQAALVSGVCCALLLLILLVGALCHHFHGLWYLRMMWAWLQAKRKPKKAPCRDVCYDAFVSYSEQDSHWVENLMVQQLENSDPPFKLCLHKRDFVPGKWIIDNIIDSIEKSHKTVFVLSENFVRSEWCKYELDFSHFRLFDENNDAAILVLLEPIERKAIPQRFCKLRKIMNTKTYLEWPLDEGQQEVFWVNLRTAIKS

Q: For `CCCCCC/C=C\CCCCCCCCCC(=O)N[C@H]1[C@H](OC[C@H]2O[C@H](OP(=O)([O-])[O-])[C@H](NC(=O)CC(=O)CCCCCCCCCCC)[C@@H](OCCCCCCCCCC)[C@@H]2O)O[C@H](COC)[C@@H](OP(=O)([O-])[O-])[C@@H]1OCC[C@@H](CCCCCCC)OC.[Na+].[Na+].[Na+].[Na+]` [eritoran tetrasodium], which LPS-induced corneal haze (TLR4 [1]) is on record?
A: significantly reduced

Q: And the LPS-induced neutrophil infiltration (TLR4 [1])?
A: significantly inhibited; also recorded: significantly reduced

Q: And the “cellular infiltrate in the central corneal stroma” value (TLR4 [1])?
A: minimal cellular infiltrate

Q: What about the “concentration needed to reduce neutrophil numbers by 50%” value (TLR4 [1]) of the same molecule?
A: 0.35 mg/mL

Q: And the “effect on neutrophil numbers at concentrations lower than 1.1 mg/ml” value (TLR4 [1])?
A: no significant effect

Q: And the minimum inhibitory concentration (TLR4 [1])?
A: 350 µg/mL

Q: And the “neutrophil numbers per corneal section” value (TLR4 [1])?
A: dose-dependent reduction

Q: And the “second application after 3 h versus single treatment” value (TLR4 [1])?
A: no significant difference

Q: And the “CXCL1/KC in Pam3Cys-stimulated corneas” value (TLR2 [2])?
A: no difference

Q: What about the “LPS-induced IL-8 production” value (TLR4 [3]) of the same molecule?
A: significantly reduced

Q: What about the “LPS-induced IL-8 production” value (TLR4 [3]; listed as Eritoran) of the same molecule?
A: dose dependent inhibition

Q: And the “concentration that inhibited LPS-induced IL-8” value (TLR4 [3]; neutrophil cell line (HL-60))?
A: 1 ng/mL

Q: And the “LPS-induced IL-8 production” value (TLR4 [4])?
A: significantly reduced

Q: What about the “LPS-induced IL-8 production” value (TLR4 [4]; listed as Eritoran) of the same molecule?
A: dose dependent inhibition

Q: And the “dose required to inhibit LPS-induced IL-8, relative to macrophage and neutrophil lines” value (TLR4 [4]; human corneal epithelial cells with exogenous MD-2)?
A: required higher doses

Q: And the “Pam3Cys-induced IL-8 production” value (TLR2 [5])?
A: no effect

Q: And the corneal haze (TLR4/MD-2)?
A: significantly inhibited

Q: And the corneal thickness (TLR4/MD-2)?
A: significantly inhibited

Q: And the neutrophil infiltration (TLR4/MD-2)?
A: significantly inhibited

Q: What about the “CXCL1/KC in LPS-stimulated corneas” value (TLR4 [6]) of the same molecule?
A: significantly inhibited

Q: What about the “Pam3Cys-induced IL-8 production” value (TLR2 [7]) of the same molecule?
A: no effect

Q: And the “LPS-induced IL-8 production” value (TLR4 [8])?
A: significantly reduced

Q: And the “LPS-induced IL-8 production” value (TLR4 [8]; listed as Eritoran)?
A: dose dependent inhibition

Q: And the “concentration that inhibited LPS-induced IL-8” value (TLR4 [8]; macrophage cell line (U937))?
A: 1 ng/mL

Q: And the “Pam3Cys-induced IL-8 production” value (TLR2 [9])?
A: no effect

Q: What about the neutrophil infiltration (TLR2 [10]; [11]) of the same molecule?
A: no effect

Q: And the total reflectivity (TLR2 [10]; [11])?
A: no effect

Q: What about the Pam3Cys/TLR2-induced corneal inflammation (TLR2 [10]; topical pre-treatment) of the same molecule?
A: no effect

Q: What about the “TUNEL positive cells in the corneal epithelium” value (corneal epithelium; 2.2 μg prior to LPS, presence or absence of LPS) of the same molecule?
A: no TUNEL positive cells

Q: And the pro-apoptotic effect (corneal epithelium; 2.2 μg, corneal epithelium)?
A: no pro-apoptotic effect

Q: Which “antagonistic activity for other Gram negative Lipid A” value (Gram negative Lipid A) does the source give for Rhodobacter sphaeroides lipid A [RSLA] here?
A: pronounced antagonistic activity

Q: And the agonist activity (Gram negative Lipid A; on some cell types)?
A: only minor agonist activity

— patent US9006210B2, “Compositions and methods for treating corneal inflammation” (Case Western Reserve University, priority 2008, dated 2015)
